Test results from the NIST ThermoML archive (doi:10.1016/j.fluid.2014.11.020).
± gives the expanded uncertainty stated by the source.

Experiment: activity coefficient (dimensionless); of the first substance listed, at infinite dilution; xn = mol fraction of the nth substance listed
Conditions: Liquid, Chromatography, x1 = 0

Row | SMILES | activity coefficient (323.15 K) | activity coefficient (333.15 K) | activity coefficient (343.15 K)
1 | ClCCl [dichloromethane] + CCCCCCCCn1cc[n+](COCCC)c1C.N#C[N-]C#N | 0.34 ± 0.03 | 0.37 ± 0.03 | 0.37 ± 0.03
2 | ClCCl [dichloromethane] + CCCCCCCCn1cc[n+](COCCC)c1C.O=S(=O)([N-]S(=O)(=O)C(F)(F)F)C(F)(F)F | 0.42 ± 0.04 | 0.43 ± 0.04 | 0.48 ± 0.04
3 | ClCCl [dichloromethane] + CCCCCCCCn1cc[n+](COCCCOC[n+]2ccn(CCCCCCCC)c2C)c1C.N#C[N-]C#N.N#C[N-]C#N | 0.28 ± 0.03 | 0.29 ± 0.03 | 0.31 ± 0.03
4 | ClCCl [dichloromethane] + CCCCCCCCn1cc[n+](COCCCOC[n+]2ccn(CCCCCCCC)c2C)c1C.O=S(=O)([N-]S(=O)(=O)C(F)(F)F)C(F)(F)F.O=S(=O)([N-]S(=O)(=O)C(F)(F)F)C(F)(F)F | 0.3 ± 0.03 | 0.3 ± 0.03 | 0.32 ± 0.03
5 | ClCCl [dichloromethane] + CCCOC[n+]1ccc(N(C)C)cc1.O=S(=O)([N-]S(=O)(=O)C(F)(F)F)C(F)(F)F | 0.57 ± 0.04 | 0.62 ± 0.04 | 0.63 ± 0.04
6 | ClCCl [dichloromethane] + CCCOC[n+]1ccn(C)c1.F[B-](F)(F)F | 1.07 ± 0.07 | 1.16 ± 0.07 | 1.19 ± 0.08
7 | ClCCl [dichloromethane] + CCCOC[n+]1ccn(C)c1.N#C[N-]C#N | 0.69 ± 0.05 | 0.74 ± 0.05 | 0.78 ± 0.05
8 | ClCCl [dichloromethane] + CCCOC[n+]1ccn(C)c1.O=S(=O)([N-]S(=O)(=O)C(F)(F)F)C(F)(F)F | 0.71 ± 0.05 | 0.79 ± 0.05 | 0.75 ± 0.05
9 | ClCCl [dichloromethane] + CCCOC[n+]1ccn(Cc2ccccc2)c1.F[B-](F)(F)F | 0.78 ± 0.05 | 0.78 ± 0.05 | 0.79 ± 0.05
10 | ClCCl [dichloromethane] + CCCOC[n+]1ccn(Cc2ccccc2)c1.N#C[N-]C#N | 0.58 ± 0.04 | 0.63 ± 0.04 | 0.68 ± 0.05
11 | ClCCl [dichloromethane] + CCCOC[n+]1ccn(Cc2ccccc2)c1.O=S(=O)([N-]S(=O)(=O)C(F)(F)F)C(F)(F)F | 0.52 ± 0.04 | 0.44 ± 0.04 | 0.37 ± 0.03
12 | ClCCl [dichloromethane] + CN(C)c1cc[n+](COCCCOC[n+]2ccc(N(C)C)cc2)cc1.O=S(=O)([N-]S(=O)(=O)C(F)(F)F)C(F)(F)F.O=S(=O)([N-]S(=O)(=O)C(F)(F)F)C(F)(F)F | 0.52 ± 0.04 | 0.54 ± 0.04 | 0.56 ± 0.04
13 | ClCCl [dichloromethane] + Cn1cc[n+](COCCCOC[n+]2ccn(C)c2)c1.N#C[N-]C#N.N#C[N-]C#N | 0.73 ± 0.05 | 0.8 ± 0.05 | 0.86 ± 0.06
14 | ClCCl [dichloromethane] + Cn1cc[n+](COCCCOC[n+]2ccn(C)c2)c1.O=S(=O)([N-]S(=O)(=O)C(F)(F)F)C(F)(F)F.O=S(=O)([N-]S(=O)(=O)C(F)(F)F)C(F)(F)F | 0.55 ± 0.04 | 0.61 ± 0.04 | 0.43 ± 0.04
15 | CCOCC [diethyl ether] + CCCCCCCCn1cc[n+](COCCC)c1C.O=S(=O)([N-]S(=O)(=O)C(F)(F)F)C(F)(F)F | 1.13 ± 0.07 | 1.11 ± 0.07 | 
16 | CCOCC [diethyl ether] + CCCCCCCCn1cc[n+](COCCCOC[n+]2ccn(CCCCCCCC)c2C)c1C.N#C[N-]C#N.N#C[N-]C#N | 2.41 ± 0.16 | 2.33 ± 0.16 | 2.13 ± 0.14
17 | CCOCC [diethyl ether] + CCCCCCCCn1cc[n+](COCCCOC[n+]2ccn(CCCCCCCC)c2C)c1C.O=S(=O)([N-]S(=O)(=O)C(F)(F)F)C(F)(F)F.O=S(=O)([N-]S(=O)(=O)C(F)(F)F)C(F)(F)F | 0.86 ± 0.06 | 0.88 ± 0.06 | 0.92 ± 0.06
18 | CCOCC [diethyl ether] + CCCOC[n+]1ccn(C)c1.F[B-](F)(F)F | 10.4 ± 0.71 | 10.6 ± 0.72 | 
19 | CCOCC [diethyl ether] + CCCOC[n+]1ccn(C)c1.O=S(=O)([N-]S(=O)(=O)C(F)(F)F)C(F)(F)F | 2.21 ± 0.15 | 2.23 ± 0.15 | 
20 | CCOCC [diethyl ether] + CCCOC[n+]1ccn(Cc2ccccc2)c1.F[B-](F)(F)F | 6.03 ± 0.41 | 5.79 ± 0.39 | 
21 | CCOCC [diethyl ether] + CN(C)c1cc[n+](COCCCOC[n+]2ccc(N(C)C)cc2)cc1.O=S(=O)([N-]S(=O)(=O)C(F)(F)F)C(F)(F)F.O=S(=O)([N-]S(=O)(=O)C(F)(F)F)C(F)(F)F | 2.46 ± 0.17 | 2.47 ± 0.17 | 2.43 ± 0.17
22 | CC(C)OC(C)C [diisopropyl ether] + CCCCCCCCn1cc[n+](COCCC)c1C.N#C[N-]C#N | 4.17 ± 0.28 | 4.05 ± 0.28 | 

Row | SMILES | activity coefficient (323.15 K) | activity coefficient (333.15 K) | activity coefficient (343.15 K)
23 | CC(C)OC(C)C [diisopropyl ether] + CCCCCCCCn1cc[n+](COCCC)c1C.O=S(=O)([N-]S(=O)(=O)C(F)(F)F)C(F)(F)F | 1.95 ± 0.13 | 1.86 ± 0.13 | 1.82 ± 0.12
24 | CC(C)OC(C)C [diisopropyl ether] + CCCCCCCCn1cc[n+](COCCCOC[n+]2ccn(CCCCCCCC)c2C)c1C.N#C[N-]C#N.N#C[N-]C#N | 4.38 ± 0.3 | 4.07 ± 0.28 | 3.93 ± 0.27
25 | CC(C)OC(C)C [diisopropyl ether] + CCCCCCCCn1cc[n+](COCCCOC[n+]2ccn(CCCCCCCC)c2C)c1C.O=S(=O)([N-]S(=O)(=O)C(F)(F)F)C(F)(F)F.O=S(=O)([N-]S(=O)(=O)C(F)(F)F)C(F)(F)F | 1.54 ± 0.1 | 1.56 ± 0.1 | 1.54 ± 0.1
26 | CC(C)OC(C)C [diisopropyl ether] + CCCOC[n+]1ccc(N(C)C)cc1.O=S(=O)([N-]S(=O)(=O)C(F)(F)F)C(F)(F)F | 4.49 ± 0.31 | 4.54 ± 0.31 | 4.12 ± 0.28
27 | CC(C)OC(C)C [diisopropyl ether] + CCCOC[n+]1ccn(C)c1.F[B-](F)(F)F | 32.7 ± 2.2 | 28.5 ± 1.9 | 26.4 ± 1.8
28 | CC(C)OC(C)C [diisopropyl ether] + CCCOC[n+]1ccn(C)c1.O=S(=O)([N-]S(=O)(=O)C(F)(F)F)C(F)(F)F | 4.69 ± 0.32 | 4.82 ± 0.33 | 4.46 ± 0.3
29 | CC(C)OC(C)C [diisopropyl ether] + CCCOC[n+]1ccn(Cc2ccccc2)c1.F[B-](F)(F)F | 17.6 ± 1.2 | 14.8 ± 1 | 
30 | CC(C)OC(C)C [diisopropyl ether] + CCCOC[n+]1ccn(Cc2ccccc2)c1.N#C[N-]C#N | 12.8 ± 0.87 | 12.1 ± 0.83 | 12 ± 0.82
31 | CC(C)OC(C)C [diisopropyl ether] + CCCOC[n+]1ccn(Cc2ccccc2)c1.O=S(=O)([N-]S(=O)(=O)C(F)(F)F)C(F)(F)F | 3 ± 0.2 | 2.87 ± 0.2 | 2.74 ± 0.19
32 | CC(C)OC(C)C [diisopropyl ether] + CN(C)c1cc[n+](COCCCOC[n+]2ccc(N(C)C)cc2)cc1.O=S(=O)([N-]S(=O)(=O)C(F)(F)F)C(F)(F)F.O=S(=O)([N-]S(=O)(=O)C(F)(F)F)C(F)(F)F | 5.9 ± 0.4 | 5.72 ± 0.39 | 5.65 ± 0.39
33 | CC(C)OC(C)C [diisopropyl ether] + Cn1cc[n+](COCCCOC[n+]2ccn(C)c2)c1.O=S(=O)([N-]S(=O)(=O)C(F)(F)F)C(F)(F)F.O=S(=O)([N-]S(=O)(=O)C(F)(F)F)C(F)(F)F | 6.31 ± 0.43 | 6.51 ± 0.44 | 5.54 ± 0.38
34 | CCCCCCCCCCCC [dodecane] + CCCCCCCCn1cc[n+](COCCCOC[n+]2ccn(CCCCCCCC)c2C)c1C.N#C[N-]C#N.N#C[N-]C#N | 28.7 ± 2 | 30.6 ± 2.1 | 27.9 ± 1.9
35 | CCCCCCCCCCCC [dodecane] + CCCCCCCCn1cc[n+](COCCCOC[n+]2ccn(CCCCCCCC)c2C)c1C.O=S(=O)([N-]S(=O)(=O)C(F)(F)F)C(F)(F)F.O=S(=O)([N-]S(=O)(=O)C(F)(F)F)C(F)(F)F | 15.4 ± 1.1 | 13.9 ± 0.95 | 13.1 ± 0.89
36 | CCCCCCCCCCCC [dodecane] + CCCOC[n+]1ccc(N(C)C)cc1.O=S(=O)([N-]S(=O)(=O)C(F)(F)F)C(F)(F)F | 73.5 ± 5 | 69.4 ± 4.8 | 61.7 ± 4.2
37 | CCCCCCCCCCCC [dodecane] + CCCOC[n+]1ccn(C)c1.F[B-](F)(F)F | 1160 ± 80 | 1160 ± 80 | 1150 ± 79
38 | CCCCCCCCCCCC [dodecane] + CCCOC[n+]1ccn(C)c1.N#C[N-]C#N | 802 ± 55 | 716 ± 49 | 639 ± 44
39 | CCCCCCCCCCCC [dodecane] + CCCOC[n+]1ccn(C)c1.O=S(=O)([N-]S(=O)(=O)C(F)(F)F)C(F)(F)F | 132 ± 9.1 | 118 ± 8.1 | 105 ± 7.2
40 | CCCCCCCCCCCC [dodecane] + CCCOC[n+]1ccn(Cc2ccccc2)c1.F[B-](F)(F)F | 483 ± 33 | 421 ± 29 | 370 ± 25
41 | CCCCCCCCCCCC [dodecane] + CN(C)c1cc[n+](COCCCOC[n+]2ccc(N(C)C)cc2)cc1.O=S(=O)([N-]S(=O)(=O)C(F)(F)F)C(F)(F)F.O=S(=O)([N-]S(=O)(=O)C(F)(F)F)C(F)(F)F | 156 ± 11 | 137 ± 9.4 | 124 ± 8.5
42 | CCCCCCCCCCCC [dodecane] + Cn1cc[n+](COCCCOC[n+]2ccn(C)c2)c1.N#C[N-]C#N.N#C[N-]C#N | 1150 ± 79 | 962 ± 66 | 932 ± 64
43 | CCCCCCCCCCCC [dodecane] + N#C[N-]C#N.N#C[N-]C#N.c1ccc(Cn2cc[n+](COCCCOC[n+]3ccn(Cc4ccccc4)c3)c2)cc1 | 631 ± 43 | 634 ± 44 | 600 ± 41
